Values joined by “and” are separate entries in the source; they are usually repeats but may differ in a detail not shown here. Equal entries are not always repeated.
Experiments:
Mus musculus [1] = experiment: Median T/C calculated based on survivors at 150 mg/kg (146 umol) per day against Ip-implanted L1210 lymphoid leukemia mice; format: functional
Mus musculus [2] = experiment: Number of survivors in mice bearing ip-implanted L1210 lymphoid leukemia after 45 day against Ip-implanted L1210 lymphoid leukemia mice; format: functional
[3] = Water solubility was determined by UV absorption at 273 nm; format: ADME
Mus musculus [4] = experiment: Number of survivors in mice bearing ip-implanted L1210 lymphoid leukemia after 45 day; format: functional
Mus musculus [5] = experiment: Change in weight in mice bearing ip-implanted L1210 lymphoid leukemia on day 8 at 300 mg/kg or 292 umol/kg per day; format: functional
Mus musculus [6] = experiment: Percent increase in life span at 300 mg/kg (292 umol) per day; format: functional
Mus musculus [7] = experiment: Median T/C calculated based on survivors at 300 mg/kg (292 umol) per day against Ip-implanted L1210 lymphoid leukemia mice; format: functional
Mus musculus [8] = experiment: Median T/C calculated based on survivors at 300 mg/kg (318 umol) per day against Ip-implanted L1210 lymphoid leukemia mice; format: functional
Mus musculus [9] = experiment: Percent increase in life span at 300 mg/kg (318 umol) per day; format: functional
Mus musculus [10] = experiment: Median T/C calculated based on survivors at 300 mg/kg (309 umol) per day against Ip-implanted L1210 lymphoid leukemia mice; format: functional
Mus musculus [11] = experiment: Percent increase in life span at 150 mg/kg (154 umol) per day; format: functional
Mus musculus [12] = experiment: Percent increase in life span at 300 mg/kg (309 umol) per day; format: functional
Mus musculus [13] = experiment: Median T/C calculated based on survivors at 150 mg/kg (154 umol) per day against Ip-implanted L1210 lymphoid leukemia mice; format: functional
Mus musculus [14] = experiment: Median T/C calculated based on survivors at 300 mg/kg (300 umol) per day against Ip-implanted L1210 lymphoid leukemia mice; format: functional
Mus musculus [15] = experiment: Percent increase in life span at 300 mg/kg (300 umol) per day; format: functional
Mus musculus [16] = experiment: Median T/C calculated based on survivors at 400 mg/kg (411 umol) per day against Ip-implanted L1210 lymphoid leukemia mice; format: functional
Mus musculus [17] = experiment: Change in weight in mice bearing ip-implanted L1210 lymphoid leukemia on day 8 at 300 mg/kg or 309 umol/kg per day; format: functional
Mus musculus [18] = experiment: Percent increase in life span at 400 mg/kg (411 umol) per day; format: functional
Mus musculus [19] = experiment: Percent increase in life span at 400 mg/kg (400 umol) per day; format: functional
Mus musculus [20] = experiment: Percent increase in life span at 150 mg/kg (150 umol) per day; format: functional
Mus musculus [21] = experiment: Median T/C calculated based on survivors at 150 mg/kg (150 umol) per day against Ip-implanted L1210 lymphoid leukemia mice; format: functional
Mus musculus [22] = experiment: Median T/C calculated based on survivors at 400 mg/kg (400 umol) per day against Ip-implanted L1210 lymphoid leukemia mice; format: functional
Mus musculus [23] = experiment: Median T/C calculated based on survivors at 400 mg/kg (437 umol) per day against Ip-implanted L1210 lymphoid leukemia mice; format: functional
Mus musculus [24] = experiment: Percent increase in life span at 400 mg/kg (437 umol) per day; format: functional
Mus musculus [25] = experiment: Median T/C calculated based on survivors at 400 mg/kg (389 umol) per day; format: functional
Mus musculus [26] = experiment: Percent increase in life span at 400 mg/kg (389 umol) per day against Ip-implanted L1210 lymphoid leukemia mice; format: functional
Mus musculus [27] = experiment: Percent increase in life span at 150 mg/kg (164 umol) per day; format: functional
Mus musculus [28] = experiment: Median T/C calculated based on survivors at 150 mg/kg (164 umol) per day; format: functional
Mus musculus [29] = experiment: Median T/C calculated based on survivors at 200 mg/kg (822 umol) per day against Ip-implanted L1210 lymphoid leukemia mice; format: functional
Mus musculus [30] = experiment: Percent increase in life span at 71 mg/kg (292 umol) per day; format: functional
Mus musculus [31] = experiment: Percent increase in life span at 100 mg/kg (411 umol) per day; format: functional
Mus musculus [32] = experiment: Median T/C calculated based on survivors at 100 mg/kg (411 umol) per day against Ip-implanted L1210 lymphoid leukemia mice; format: functional
Mus musculus [33] = experiment: Change in weight in mice bearing ip-implanted L1210 lymphoid leukemia on day 8 at 200 mg/kg or 822 umol/kg per day; format: functional
Mus musculus [34] = experiment: Change in weight in mice bearing ip-implanted L1210 lymphoid leukemia on day 8 at 71 mg/kg or 292 umol/kg per day; format: functional
Mus musculus [35] = experiment: Percent increase in life span at 200 mg/kg (822 umol) per day; format: functional
Mus musculus [36] = experiment: Change in weight in mice bearing ip-implanted L1210 lymphoid leukemia on day 8 at 100 mg/kg or 411 umol/kg per day; format: functional
Mus musculus [37] = experiment: Median T/C calculated based on survivors at 71 mg/kg (292 umol) per day against Ip-implanted L1210 lymphoid leukemia mice; format: functional
Mus musculus [38] = experiment: Percent increase in life span at 200 mg/kg (218 umol) per day; format: functional
Mus musculus [39] = experiment: Median T/C calculated based on survivors at 300 mg/kg (328 umol) per day against Ip-implanted L1210 lymphoid leukemia mice; format: functional
Mus musculus [40] = experiment: Median T/C calculated based on survivors at 200 mg/kg (218 umol) per day; format: functional
Mus musculus [41] = experiment: Percent increase in life span at 300 mg/kg (328 umol) per day; format: functional

Compound: CCCCCCCCCCCCCCCCCCSCC(COP(=O)([O-])OP(=O)([O-])OC[C@H]1OC(n2ccc(N)nc2=O)[C@@H](O)[C@@H]1O)OC(=O)CCCCCCCCCCCCCCC.[Na+].[Na+] (some centres not stated) [CYTOROS]
- Median T/C (Mus musculus [1]): 27.5
- Survivors (Mus musculus [2]): 4
- solubility [3]: 0.2 mM
- Survivors (Mus musculus [4]): 1
- Weight change (Mus musculus [5]): -2.4 g mouse-1
- ILS (Mus musculus [6]): >543% and >293%
- Median T/C (Mus musculus [7]): >45

Compound: CCCCCCCCCCCCCCSCC(COP(=O)([O-])OP(=O)([O-])OC[C@H]1OC(n2ccc(N)nc2=O)[C@@H](O)[C@@H]1O)OC(=O)CCCCCCCCCCCCC.[Na+].[Na+] (some centres not stated)
- Median T/C (Mus musculus [8]): 24
- solubility [3]: > 60 mM
- Survivors (Mus musculus [4]): 2
- ILS at 300 mg/kg (Mus musculus [9]): 243%

Compound: CCCCCCCCCCCCCCCCCCSCC(COP(=O)([O-])OP(=O)([O-])OC[C@H]1OC(n2ccc(N)nc2=O)[C@@H](O)[C@@H]1O)OC(=O)CCCCCCCCCCC.[Na+].[Na+] (some centres not stated)
- Median T/C (Mus musculus [10]): 25
- solubility [3]: > 54 mM
- Survivors (Mus musculus [4]): 1 and 2
- ILS at 150 mg/kg (Mus musculus [11]): 371%
- ILS at 300 mg/kg (Mus musculus [12]): 213%
- Median T/C (Mus musculus [13]): 33

Compound: CCCCCCCCCCCCCCCCSCC(COP(=O)([O-])OP(=O)([O-])OC[C@H]1OC(n2ccc(N)nc2=O)[C@@H](O)[C@@H]1O)OC(=O)CCCCCCCCCCCCCCC.[Na+].[Na+] (some centres not stated)
- Median T/C (Mus musculus [14]): 37.5
- ILS at 300 mg/kg (Mus musculus [15]): > 436%
- solubility [3]: 0.2 mM
- Survivors (Mus musculus [4]): 2

Compound: CCCCCCCCCCCCCCCC(=O)OC(COP(=O)([O-])OP(=O)([O-])OC[C@H]1OC(n2ccc(N)nc2=O)[C@@H](O)[C@@H]1O)CSCCCCCCCCCCCCCC.[Na+].[Na+] (some centres not stated)
- Median T/C (Mus musculus [16]): >36.5 and 34.5
- Weight change (Mus musculus [17]): 0.5 g mouse-1
- solubility [3]: 1.5 mM
- Survivors (Mus musculus [4]): 3 and 1 and 2
- ILS at 150 mg/kg (Mus musculus [11]): 321%
- ILS (Mus musculus [18]): >421% and 393%
- Median T/C (Mus musculus [13]): 29.5

Compound: CCCCCCCCCCCCCCCCCCSCC(COP(=O)([O-])OP(=O)([O-])OC[C@H]1OC(n2ccc(N)nc2=O)[C@@H](O)[C@@H]1O)OC(=O)CCCCCCCCCCCCC.[Na+].[Na+] (some centres not stated)
- solubility [3]: > 62 mM
- ILS at 400 mg/kg (Mus musculus [19]): 213%
- ILS at 150 mg/kg (Mus musculus [20]): > 464%
- Survivors (Mus musculus [4]): 1 and 3
- Median T/C (Mus musculus [21]): 39.5
- Median T/C (Mus musculus [22]): 25

Compound: CCCCCCCCCCCCCCCCSCC(COP(=O)([O-])OP(=O)([O-])OC[C@H]1OC(n2ccc(N)nc2=O)[C@@H](O)[C@@H]1O)OC(=O)CCCCCCCCCCCCC.[Na+].[Na+] (some centres not stated)
- Weight change (Mus musculus [17]): -1.8 g mouse-1
- Median T/C (Mus musculus [10]): 34
- solubility [3]: > 53 mM
- Survivors (Mus musculus [4]): 2
- ILS at 300 mg/kg (Mus musculus [12]): 386%

Compound: CCCCCCCCCCCCCCSCC(COP(=O)([O-])OP(=O)([O-])OC[C@H]1OC(n2ccc(N)nc2=O)[C@@H](O)[C@@H]1O)OC(=O)CCCCCCCCCCC.[Na+].[Na+] (some centres not stated)
- Median T/C (Mus musculus [23]): 16
- solubility [3]: > 50 mM
- Survivors (Mus musculus [4]): 0
- ILS at 400 mg/kg (Mus musculus [24]): 129%

Compound: CCCCCCCCCCCCCCCCCC(=O)OC(COP(=O)([O-])OP(=O)([O-])OC[C@H]1OC(n2ccc(N)nc2=O)[C@@H](O)[C@@H]1O)CSCCCCCCCCCCCCCCCC.[Na+].[Na+] (some centres not stated)
- Median T/C (Mus musculus [25]): >43.5
- solubility [3]: 0.2 mM
- Survivors (Mus musculus [4]): 3
- ILS at 400 mg/kg (Mus musculus [26]): > 521%

Compound: CCCCCCCCCCCCCCCC(=O)OC(COP(=O)([O-])OP(=O)([O-])OC[C@H]1OC(n2ccc(N)nc2=O)[C@@H](O)[C@@H]1O)CSCCCCCCCCCC.[Na+].[Na+] (some centres not stated)
- Median T/C (Mus musculus [23]): 15
- ILS at 150 mg/kg (Mus musculus [27]): 200%
- solubility [3]: > 58 mM
- Survivors (Mus musculus [4]): 0
- ILS at 400 mg/kg (Mus musculus [24]): 114%
- Median T/C (Mus musculus [28]): 21

Compound: Nc1ccn([C@@H]2O[C@H](CO)[C@@H](O)[C@@H]2O)c(=O)n1 [CYTARABINE]
- Median T/C (Mus musculus [29]): 14
- ILS at 71 mg/kg (Mus musculus [30]): 23%
- ILS at 100 mg/kg (Mus musculus [31]): 129%
- Median T/C (Mus musculus [32]): 16
- Weight change (Mus musculus [33]): -6.1 g mouse-1
- Weight change (Mus musculus [34]): -3.8 g mouse-1
- Survivors (Mus musculus [4]): 0
- ILS at 200 mg/kg (Mus musculus [35]): 100%
- Weight change (Mus musculus [36]): -3.1 g mouse-1
- Median T/C (Mus musculus [37]): 8

Compound: CCCCCCCCCCCCCCCCSCC(COP(=O)([O-])OP(=O)([O-])OC[C@H]1OC(n2ccc(N)nc2=O)[C@@H](O)[C@@H]1O)OC(=O)CCCCCCCCCCC.[Na+].[Na+] (some centres not stated)
- Median T/C (Mus musculus [8]): 19.5
- solubility [3]: > 64 mM
- Survivors (Mus musculus [4]): 2
- ILS at 300 mg/kg (Mus musculus [9]): 178%

Compound: CCCCCCCCCCCCCC(=O)OC(COP(=O)([O-])OP(=O)([O-])OC[C@H]1OC(n2ccc(N)nc2=O)[C@@H](O)[C@@H]1O)CSCCCCCCCCCCCC.[Na+].[Na+] (some centres not stated)
- ILS at 200 mg/kg (Mus musculus [38]): 463%
- solubility [3]: > 68 mM
- Median T/C (Mus musculus [39]): 14.5
- Median T/C (Mus musculus [40]): >45
- ILS at 300 mg/kg (Mus musculus [41]): 81%
